The source made the active and inactive calls.
Columns and labels:
[1] = biological target: Potassium voltage-gated channel subfamily KQT member 2 (Rattus norvegicus, UniProt O88943, W236L); assay: potentiation of rat KCNQ2 current – cell-based, automated electrophysiology, mechanism study for KCNQ2 potentiator project, dose response (AID 2603); format: functional
Melanocortin receptor 4 = Melanocortin receptor 4 (Homo sapiens, UniProt P32245); assay: inhibitors of MC4R cAMP signaling – cell-based, TR-FRET, biased antagonists, dose response (AID 602298); format: functional;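 also: antagonist potency against agonist-stimulated cAMP production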
Sequence of Melanocortin receptor 4 (P32245 whole entry): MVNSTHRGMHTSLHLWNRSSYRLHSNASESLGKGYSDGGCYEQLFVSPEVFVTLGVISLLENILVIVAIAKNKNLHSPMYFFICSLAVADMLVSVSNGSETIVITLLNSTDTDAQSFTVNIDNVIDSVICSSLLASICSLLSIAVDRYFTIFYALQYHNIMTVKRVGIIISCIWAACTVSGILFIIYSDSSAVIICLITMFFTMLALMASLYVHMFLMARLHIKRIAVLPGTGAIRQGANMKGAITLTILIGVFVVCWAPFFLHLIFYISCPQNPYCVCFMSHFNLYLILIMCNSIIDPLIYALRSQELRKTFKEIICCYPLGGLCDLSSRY

[2] = cAMP pathway inhibition in counterscreen cell line – TR-FRET cAMP detection, counter-screen for MC4R biased antagonist project, dose response (AID 602305); format: functional, cell-based;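 also: U2OS cells stimulated with forskolin near its EC80 as the cAMP inducer; potency is for inhibition of forskolin-stimulated cAMP signaling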
[3] = A High Throughput Confirmatory Assay used to Identify Novel Compounds that Inhibit Mycobacterium Tuberculosis in the absence of Glycerol.; format: functional
[4] = microbe, parasite or virus in culture; format: functional; conditions: Mycobacterium tuberculosis
Vero = assay: cells; format: functional; conditions: Chlorocebus sabaeus
[5] = Trypanosoma cruzi growth suppression in host cells – NIH3T3 host cells, beta-gal luminescence, confirmation (AID 2044); format: functional, cell-based;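 also: intracellular parasites grown in NIH/3T3 mouse fibroblasts as host cells; luminescent beta-galactosidase reporter signal from transgenic T. cruzi replicating inside host cells; inhibitors lower the luminescence signal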
[6] = NIH3T3 cell viability loss – ATP luminescence, mouse fibroblasts, counter-screen, dose response (AID 2010); format: functional, cell-based;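 also: cells exposed to compound for about 90 hours before reading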
[7] = biological target: Peroxisome proliferator-activated receptor gamma/Nuclear receptor corepressor 2 (Homo sapiens, UniProt P37231+Q9Y618); assay: Counterscreen for NR2E3 inverse agonists: TR-FRET-based biochemical high throughput dose response assay to identify inverse agonists of the interaction between peroxisome proliferator-activated receptor gamma (PPARg) and nuclear receptor co-repressor 2 (NCOR2).; format: functional
Sequence of Peroxisome proliferator-activated receptor gamma/Nuclear receptor corepressor 2 (P37231 whole entry): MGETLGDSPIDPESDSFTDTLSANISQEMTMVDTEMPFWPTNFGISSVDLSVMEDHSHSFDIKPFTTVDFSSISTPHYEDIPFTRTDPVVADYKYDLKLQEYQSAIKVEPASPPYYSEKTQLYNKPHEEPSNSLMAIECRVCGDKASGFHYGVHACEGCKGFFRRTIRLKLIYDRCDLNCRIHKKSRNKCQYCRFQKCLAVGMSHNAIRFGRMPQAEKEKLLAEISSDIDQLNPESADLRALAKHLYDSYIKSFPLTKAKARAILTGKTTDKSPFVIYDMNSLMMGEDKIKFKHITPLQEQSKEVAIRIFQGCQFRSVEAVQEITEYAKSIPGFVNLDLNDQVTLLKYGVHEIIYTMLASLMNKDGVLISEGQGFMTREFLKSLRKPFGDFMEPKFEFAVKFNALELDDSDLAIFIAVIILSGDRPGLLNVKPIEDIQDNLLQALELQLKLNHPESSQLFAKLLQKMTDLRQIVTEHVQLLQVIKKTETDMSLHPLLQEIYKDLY
Sequence of Peroxisome proliferator-activated receptor gamma/Nuclear receptor corepressor 2 (Q9Y618 whole entry): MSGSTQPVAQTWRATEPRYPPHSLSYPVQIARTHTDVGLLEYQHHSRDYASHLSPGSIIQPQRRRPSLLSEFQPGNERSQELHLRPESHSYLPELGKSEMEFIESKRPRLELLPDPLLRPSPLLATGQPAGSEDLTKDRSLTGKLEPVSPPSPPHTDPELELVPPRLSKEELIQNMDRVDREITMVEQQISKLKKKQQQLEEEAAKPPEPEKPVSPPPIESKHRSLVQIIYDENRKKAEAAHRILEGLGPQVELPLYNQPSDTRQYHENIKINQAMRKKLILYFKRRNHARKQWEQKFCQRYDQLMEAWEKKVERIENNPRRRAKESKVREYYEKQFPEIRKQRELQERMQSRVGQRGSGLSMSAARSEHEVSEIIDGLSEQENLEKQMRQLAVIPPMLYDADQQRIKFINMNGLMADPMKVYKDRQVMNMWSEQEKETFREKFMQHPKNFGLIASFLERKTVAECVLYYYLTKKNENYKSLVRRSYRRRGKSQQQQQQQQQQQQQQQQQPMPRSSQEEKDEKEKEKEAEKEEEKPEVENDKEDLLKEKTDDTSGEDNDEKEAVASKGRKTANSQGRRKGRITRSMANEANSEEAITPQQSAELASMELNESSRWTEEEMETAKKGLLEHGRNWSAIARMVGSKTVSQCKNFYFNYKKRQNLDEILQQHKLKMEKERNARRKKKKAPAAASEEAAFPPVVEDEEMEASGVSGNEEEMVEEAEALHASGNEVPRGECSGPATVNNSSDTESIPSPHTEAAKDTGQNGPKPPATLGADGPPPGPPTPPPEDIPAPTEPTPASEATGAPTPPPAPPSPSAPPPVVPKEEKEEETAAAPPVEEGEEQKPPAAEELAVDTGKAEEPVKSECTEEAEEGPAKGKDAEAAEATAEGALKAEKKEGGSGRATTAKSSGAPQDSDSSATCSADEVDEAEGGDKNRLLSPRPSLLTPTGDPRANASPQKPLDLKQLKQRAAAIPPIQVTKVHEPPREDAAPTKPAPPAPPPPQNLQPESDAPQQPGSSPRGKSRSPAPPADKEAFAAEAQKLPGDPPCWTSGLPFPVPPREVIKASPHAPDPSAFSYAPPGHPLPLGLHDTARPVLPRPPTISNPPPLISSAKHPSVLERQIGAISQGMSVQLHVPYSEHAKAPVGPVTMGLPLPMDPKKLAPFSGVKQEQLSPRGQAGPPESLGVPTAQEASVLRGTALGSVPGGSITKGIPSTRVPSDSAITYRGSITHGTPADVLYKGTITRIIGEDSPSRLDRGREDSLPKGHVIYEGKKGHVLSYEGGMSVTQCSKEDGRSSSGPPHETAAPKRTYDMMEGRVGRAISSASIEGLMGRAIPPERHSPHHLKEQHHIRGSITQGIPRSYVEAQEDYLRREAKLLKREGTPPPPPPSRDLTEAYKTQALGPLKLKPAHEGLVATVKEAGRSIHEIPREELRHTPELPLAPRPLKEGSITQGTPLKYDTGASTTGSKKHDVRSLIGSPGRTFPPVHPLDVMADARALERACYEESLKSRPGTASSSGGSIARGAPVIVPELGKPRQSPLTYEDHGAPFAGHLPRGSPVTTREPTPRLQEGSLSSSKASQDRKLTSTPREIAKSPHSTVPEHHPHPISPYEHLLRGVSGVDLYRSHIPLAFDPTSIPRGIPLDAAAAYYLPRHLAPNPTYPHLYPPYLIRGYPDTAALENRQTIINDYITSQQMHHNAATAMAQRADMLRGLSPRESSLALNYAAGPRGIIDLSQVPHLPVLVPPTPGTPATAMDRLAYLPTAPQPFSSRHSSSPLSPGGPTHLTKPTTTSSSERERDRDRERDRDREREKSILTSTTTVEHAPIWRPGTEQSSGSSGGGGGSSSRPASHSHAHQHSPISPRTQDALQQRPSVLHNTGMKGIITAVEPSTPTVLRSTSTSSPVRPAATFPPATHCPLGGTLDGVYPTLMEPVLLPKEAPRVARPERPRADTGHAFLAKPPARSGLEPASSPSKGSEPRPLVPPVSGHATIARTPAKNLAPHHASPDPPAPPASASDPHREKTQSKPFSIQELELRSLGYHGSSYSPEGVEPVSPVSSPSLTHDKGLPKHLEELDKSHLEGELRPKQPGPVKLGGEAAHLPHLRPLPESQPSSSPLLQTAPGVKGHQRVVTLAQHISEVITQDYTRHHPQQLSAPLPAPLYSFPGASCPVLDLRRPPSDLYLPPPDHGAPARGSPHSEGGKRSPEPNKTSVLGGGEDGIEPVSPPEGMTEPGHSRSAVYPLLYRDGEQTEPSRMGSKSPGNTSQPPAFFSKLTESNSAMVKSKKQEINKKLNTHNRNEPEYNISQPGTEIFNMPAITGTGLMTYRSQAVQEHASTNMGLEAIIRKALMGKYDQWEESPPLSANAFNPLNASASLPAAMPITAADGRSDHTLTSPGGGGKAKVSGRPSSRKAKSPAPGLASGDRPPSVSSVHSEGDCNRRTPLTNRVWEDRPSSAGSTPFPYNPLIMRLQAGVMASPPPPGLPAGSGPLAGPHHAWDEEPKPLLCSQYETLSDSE

[8] = biological target: Photoreceptor-specific nuclear receptor (Homo sapiens, UniProt Q9Y5X4); assay: ligands suppressing NR2E3 nuclear receptor activity – biochemical, TR-FRET, dose response (AID 463256); format: functional
Sequence of Photoreceptor-specific nuclear receptor (Q9Y5X4 whole entry): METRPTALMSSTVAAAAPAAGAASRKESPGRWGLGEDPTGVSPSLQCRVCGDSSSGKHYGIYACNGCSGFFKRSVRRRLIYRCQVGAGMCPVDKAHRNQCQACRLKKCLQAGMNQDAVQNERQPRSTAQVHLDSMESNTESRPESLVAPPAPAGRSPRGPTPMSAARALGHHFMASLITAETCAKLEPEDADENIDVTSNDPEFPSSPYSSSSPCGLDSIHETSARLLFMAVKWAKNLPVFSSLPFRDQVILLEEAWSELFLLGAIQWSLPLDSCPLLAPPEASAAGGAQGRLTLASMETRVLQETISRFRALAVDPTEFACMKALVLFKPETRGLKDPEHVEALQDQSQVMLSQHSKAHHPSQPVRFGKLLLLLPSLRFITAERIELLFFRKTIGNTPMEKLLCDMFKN

[9] = biological target: Diphosphomevalonate decarboxylase (Streptococcus pneumoniae serotype 2 (strain D39 / NCTC 7466), UniProt Q9FD53); assay: diphosphomevalonate decarboxylase inhibitor confirmation – biochemical, cuvette format, coupled NADH fluorescence (AID 1028); format: functional
Sequence of Diphosphomevalonate decarboxylase (Q9FD53 whole entry): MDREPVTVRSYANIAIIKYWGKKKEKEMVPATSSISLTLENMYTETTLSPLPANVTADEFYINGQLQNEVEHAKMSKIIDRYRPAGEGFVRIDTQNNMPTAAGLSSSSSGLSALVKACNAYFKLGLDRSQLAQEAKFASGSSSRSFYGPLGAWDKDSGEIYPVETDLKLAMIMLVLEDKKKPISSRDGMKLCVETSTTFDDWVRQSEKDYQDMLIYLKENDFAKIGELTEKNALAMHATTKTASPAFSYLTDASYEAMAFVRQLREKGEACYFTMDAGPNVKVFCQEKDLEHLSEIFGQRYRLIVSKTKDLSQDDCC

[10] = biological target: T1, Tyrosine-protein phosphatase non-receptor type 7 (Homo sapiens, UniProt P35236); assay: HePTP tyrosine phosphatase activity blockers – biochemical, absorbance, leukemia target, primary screen (AID 521); format: functional
T1 sequence (P35236 whole entry): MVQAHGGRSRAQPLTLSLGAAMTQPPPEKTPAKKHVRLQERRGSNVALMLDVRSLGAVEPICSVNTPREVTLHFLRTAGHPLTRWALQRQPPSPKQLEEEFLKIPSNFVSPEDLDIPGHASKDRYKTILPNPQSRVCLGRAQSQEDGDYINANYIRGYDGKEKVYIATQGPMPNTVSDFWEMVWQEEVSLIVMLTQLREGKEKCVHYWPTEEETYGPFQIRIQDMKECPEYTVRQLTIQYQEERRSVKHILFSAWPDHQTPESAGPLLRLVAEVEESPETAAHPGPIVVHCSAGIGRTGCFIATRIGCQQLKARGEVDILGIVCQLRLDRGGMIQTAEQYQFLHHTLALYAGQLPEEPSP

Sequence of Potassium voltage-gated channel subfamily KQT member 2 (O88943 whole entry W236L): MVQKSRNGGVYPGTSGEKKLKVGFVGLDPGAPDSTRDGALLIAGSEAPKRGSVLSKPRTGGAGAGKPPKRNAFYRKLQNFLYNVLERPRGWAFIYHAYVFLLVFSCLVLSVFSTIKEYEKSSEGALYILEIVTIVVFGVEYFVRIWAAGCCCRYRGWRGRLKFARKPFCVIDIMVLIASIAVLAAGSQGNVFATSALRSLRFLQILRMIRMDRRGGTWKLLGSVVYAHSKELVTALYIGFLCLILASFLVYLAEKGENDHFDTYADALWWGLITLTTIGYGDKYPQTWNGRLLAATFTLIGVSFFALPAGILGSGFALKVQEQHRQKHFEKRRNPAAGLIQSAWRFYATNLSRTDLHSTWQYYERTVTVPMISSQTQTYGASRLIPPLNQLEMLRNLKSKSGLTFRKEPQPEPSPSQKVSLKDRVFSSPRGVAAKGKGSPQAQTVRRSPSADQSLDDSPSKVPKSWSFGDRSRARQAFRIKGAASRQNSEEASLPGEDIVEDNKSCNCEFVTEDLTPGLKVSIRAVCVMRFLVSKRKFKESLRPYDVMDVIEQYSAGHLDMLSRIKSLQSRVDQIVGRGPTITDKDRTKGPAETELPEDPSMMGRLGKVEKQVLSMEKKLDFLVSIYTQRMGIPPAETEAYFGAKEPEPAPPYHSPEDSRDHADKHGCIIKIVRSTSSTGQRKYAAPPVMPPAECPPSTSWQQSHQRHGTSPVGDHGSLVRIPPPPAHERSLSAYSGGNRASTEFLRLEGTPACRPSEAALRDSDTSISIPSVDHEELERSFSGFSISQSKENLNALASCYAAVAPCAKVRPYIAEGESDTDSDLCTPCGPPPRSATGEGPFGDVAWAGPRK

## COC(=O)CSc1[nH]c2ccc(F)cc2c1[N+](=O)[O-]
[1]
  EC50: 0.17 µM (active)
Melanocortin receptor 4
  IC50: > 64.6 µM (inactive)
[2]
  IC50: > 64.6 µM (inactive)

## CC(C(Sc1ccccc1N)c1ccccc1)[N+](=O)[O-] (stereo not drawn)
[3]
  IC50: > 100 µM (active)
[4]
  CC50: 32.6 µM (active)
Vero
  CC50: 16.6 µM (active)

## CN1CCc2c(sc3c2c(=O)n(-c2ccccc2)c2nnc(SCc4ccc(Cl)cc4)n32)C1
[5]
  EC50: < 0.1 µM (active)
[6]
  EC50: > 60 µM (not active)
cells
  EC50: < 0.004 µM (active)

## CC(=O)c1sc(NS(=O)(=O)c2ccc(C)cc2)nc1-c1ccccc1
[7]
  IC50: > 39.8 µM (not active)
[8]
  IC50: > 39.8 µM (not active)

## O=C(NCC1CC1)c1ccc(-n2sc3ccccc3c2=O)cc1
[9]
  IC50: 11.9 µM (active)

## COCC(=O)N1CCC(n2nnc3cc(F)ccc32)CC1
[10]
  IC50: > 100 µM (not active)
